According to patent US20230167103A1 (Bayer Aktiengesellschaft, priority 2020, published 2023):
pIC50: −log10 of the molar value.

Target: T1, human DGKζ (Homo sapiens, UniProt Q13574)
T1 construct: made in house; host or cells: Sf9 insect cells, baculovirus
Assay: Human DGKζ kinase activity inhibition assay (ADP-Glo)
Assay type: biochemical
Details: example compounds; recombinant full-length human DGKζ, 1,2-dioleoyl-sn-glycerol 7 μM, ATP 55 μM, 20 min at 22° C.; read-out: IC50 values of examples in in vitro human DGKζ kinase activity inhibition assays
Description: Human diacylglycerol kinase zeta (DGKζ) inhibitory activity of compounds of the present invention was quantified employing the human DGKζ kinase activity assay as described in the following paragraphs. In essence, the enzyme activity was measured by quantification of the adenosine-di-phosphate (ADP) generated as a co-product of the enzyme reaction via the “ADP-Glo™ Kinase Assay” kit from the company Promega. This detection system works as follows: In a first step the adenosine-tri-phosphate (ATP) not consumed in the kinase reaction is quantitatively converted to cyclic adenosine-mono-phosphate (cAMP) employing an adenylate cyclase (“ADP-Glo-reagent”), then the adenylate cyclase is stopped and the ADP generated in the kinase reaction is converted to ATP, which subsequently generates in a luciferase-based reaction a glow-luminescence signal (“Kinase Detection Reagent”).
C-terminally FLAG-tagged, recombinant full-length human DGKζ (inhouse expressed in baculovirus infected insect cells, purified using anti-Flag pulldown and size exclusion chromatography) was used as enzyme. As an alternative, commercially available enzyme by Carnabio can be used. As substrate for the kinase, 1,2-dioleoyl-sn-glycerol, reconstituted in octyl-β-D-glucopyranoside micelles, was used. […] Subsequently, 22.55 volumes of a 510 mM solution of octyl-β-D-glucopyranoside (Sigma-Aldrich, Cat. #O8001-10G) in 50 mM MOPS buffer (pH 7.4) were added, and the mixture was sonicated in an ultrasonic bath for 20 s. Then 35 volumes of 50 mM MOPS buffer (pH 7.4) were added to yield a solution of 0.28 mM 1,2 dioleoyl-sn-glycerol and 200 mM octyl-β-D-glucopyranoside, which was aliquoted, flash-frozen in liquid nitrogen, and stored at −20° C. until use.
For the assay 50 nl of a 100-fold concentrated solution of the test compound in dimethyl sulfoxide (DMSO, Sigma) was pipetted into either a white 1536-well or a white low-volume 384-well microtiter plate (both Greiner Bio-One, Frickenhausen, Germany). […] The concentration of DGKζ was adjusted depending of the activity of the enzyme lot and was chosen appropriate to have the assay in the linear range, a typical concentration is about 0.1 nM. The reaction was stopped by the addition of 2.5 μL of “ADP-Glo-reagent” (1 to 1.5 diluted with water) and the resulting mixture was incubated at 22° C. for 1 h to convert the ATP not consumed in the kinase reaction completely to cAMP. Subsequently 2.5 μl of the “kinase detection reagent” (1.2 fold more concentrated than recommended by the producer) were added, the resulting mixture was incubated at 22° C. for 1 h and then the luminescence measured with a suitable measurement instrument (e.g. Viewlux™ from Perkin-Elmer). The amount of emitted light was taken as a measure for the amount of ADP generated and thereby for the activity of the DGKζ.
The data were normalised (enzyme reaction without inhibitor=0% inhibition, all other assay components but no enzyme=100% inhibition).

T1 sequence (Q13574 with tags, fused parts or gaps): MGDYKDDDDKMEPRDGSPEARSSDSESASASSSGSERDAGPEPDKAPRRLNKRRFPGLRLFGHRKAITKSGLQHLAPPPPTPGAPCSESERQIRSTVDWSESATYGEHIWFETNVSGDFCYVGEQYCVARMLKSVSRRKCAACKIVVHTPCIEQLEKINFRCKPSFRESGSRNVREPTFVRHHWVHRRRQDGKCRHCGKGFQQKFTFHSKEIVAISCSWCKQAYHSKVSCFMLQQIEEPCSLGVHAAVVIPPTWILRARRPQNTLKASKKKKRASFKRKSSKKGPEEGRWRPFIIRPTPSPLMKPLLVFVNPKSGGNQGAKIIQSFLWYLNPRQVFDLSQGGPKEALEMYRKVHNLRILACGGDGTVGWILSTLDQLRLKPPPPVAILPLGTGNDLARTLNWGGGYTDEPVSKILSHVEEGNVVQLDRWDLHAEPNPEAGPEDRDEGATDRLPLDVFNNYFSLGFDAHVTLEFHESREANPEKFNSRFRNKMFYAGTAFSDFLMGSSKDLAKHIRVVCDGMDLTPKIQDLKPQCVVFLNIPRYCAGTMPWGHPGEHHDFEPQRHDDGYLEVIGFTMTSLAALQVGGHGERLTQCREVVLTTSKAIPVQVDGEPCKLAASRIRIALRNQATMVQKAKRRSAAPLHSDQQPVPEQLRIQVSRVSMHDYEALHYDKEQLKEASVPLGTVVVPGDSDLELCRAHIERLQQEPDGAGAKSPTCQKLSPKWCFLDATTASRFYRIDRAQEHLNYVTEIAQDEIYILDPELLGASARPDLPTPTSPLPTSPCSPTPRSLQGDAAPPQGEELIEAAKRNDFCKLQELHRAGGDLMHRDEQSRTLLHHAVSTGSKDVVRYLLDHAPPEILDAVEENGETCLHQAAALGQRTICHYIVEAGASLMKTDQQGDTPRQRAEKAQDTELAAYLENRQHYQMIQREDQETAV

Point of comparison: CC(C(N)=O)N(c1ccc(F)cc1)c1nc(N)c(C(=O)c2cc(C(=O)NCCOC(C)(C)C)no2)s1 (racemic) [Example 26, rac-5-[4-amino-2-(N-(2-amino-1-methyl-2-oxo-ethyl)-4-fluoro-anilino)thiazole-5-carbonyl]-N-(2-tert-butoxyethyl)isoxazole-3-carboxamide], pIC50 6.86. Against it:
- CC(C(N)=O)N(c1ccc(F)cc1)c1nc(N)c(C(=O)c2cc(C(=O)NC3(C4CC4)CC3)no2)s1 (racemic) [Example 24, rac-5-[4-amino-2-(N-(2-amino-1-methyl-2-oxo-ethyl)-4-fluoro-anilino)thiazole-5-carbonyl]-N-(1-cyclopropylcyclopropyl)isoxazole-3-carboxamide] — within 0.2 log units, 6.92
- CC(C(N)=O)N(c1ccc(F)cc1)c1nc(N)c(C(=O)c2cc(C(=O)NC3CCCC3)no2)s1 (racemic) [Example 25, rac-5-[4-amino-2-(N-(2-amino-1-methyl-2-oxo-ethyl)-4-fluoro-anilino)thiazole-5-carbonyl]-N-cyclopentyl-isoxazole-3-carboxamide] — within 0.2 log units, 6.87
- CC(C(N)=O)N(c1ccc(F)cc1)c1nc(N)c(C(=O)c2cc(C(=O)N3CCCCC3)no2)s1 (racemic) [Example 27, rac-2-(N-[4-amino-5-[3-(piperidine-1-carbonyl)isoxazole-5-carbonyl]thiazol-2-yl]-4-fluoro-anilino)propanamide] — within 0.2 log units, 6.83
- CC(C(N)=O)N(c1ccc(F)cc1)c1nc(N)c(C(=O)c2cc(C(=O)Nc3ccccn3)no2)s1 (racemic) [Example 28, rac-5-[4-amino-2-(N-(2-amino-1-methyl-2-oxo-ethyl)-4-fluoro-anilino)thiazole-5-carbonyl]-N-(2-pyridyl)isoxazole-3-carboxamide] — within 0.2 log units, 7.05
- CC(C(N)=O)N(c1ccc(F)cc1)c1nc(N)c(C(=O)c2cc(C(=O)NCCOC(F)(F)F)no2)s1 (racemic) [Example 29, rac-5-[4-amino-2-(N-(2-amino-1-methyl-2-oxo-ethyl)-4-fluoro-anilino)thiazole-5-carbonyl]-N-[2-(trifluoromethoxy)ethyl]isoxazole-3-carboxamide] — within 0.2 log units, 7.01
- CC(C(N)=O)N(c1ccc(F)cc1)c1nc(N)c(C(=O)c2cc(C(=O)NC3(C)CCC3)no2)s1 (racemic) [Example 30, rac-5-[4-amino-2-(N-(2-amino-1-methyl-2-oxo-ethyl)-4-fluoro-anilino)thiazole-5-carbonyl]-N-(1-methylcyclobutyl)isoxazole-3-carboxamide] — 0.20 log units higher, 7.06
- CC(C(N)=O)N(c1ccc(F)cc1)c1nc(N)c(C(=O)c2cc(C(=O)NC34CC(C3)C4)no2)s1 (racemic) [Example 31, rac-5-[4-amino-2-(N-(2-amino-1-methyl-2-oxo-ethyl)-4-fluoro-anilino)thiazole-5-carbonyl]-N-(1-bicyclo[1.1.1]pentanyl)isoxazole-3-carboxamide] — within 0.2 log units, 6.71
- CC(C(N)=O)N(c1ccc(F)cc1)c1nc(N)c(C(=O)c2cc(C(=O)NC3CC(F)(F)C3)no2)s1 (racemic) [Example 32, rac-5-[4-amino-2-(N-(2-amino-1-methyl-2-oxo-ethyl)-4-fluoro-anilino)thiazole-5-carbonyl]-N-(3,3-difluorocyclobutyl)isoxazole-3-carboxamide] — within 0.2 log units, 7.03
- CC(C(N)=O)N(c1ccc(F)cc1)c1nc(N)c(C(=O)c2cc(C(=O)NC3CCC(F)(F)C3)no2)s1 (racemic) [Example 33, 5-[4-amino-2-(N-(2-amino-1-methyl-2-oxo-ethyl)-4-fluoro-anilino)thiazole-5-carbonyl]-N-(3,3-difluorocyclopentyl)isoxazole-3-carboxamide] — 0.46 log units higher, 7.32
- CC(C)NC(=O)c1cc(C(=O)c2sc(N(c3ccc(F)cc3)C(C)C(N)=O)nc2N)on1 (racemic) [Example 34, rac-5-[4-amino-2-(N-(2-amino-1-methyl-2-oxo-ethyl)-4-fluoro-anilino)thiazole-5-carbonyl]-N-isopropyl-isoxazole-3-carboxamide] — 0.21 log units lower, 6.65
- CC(C(N)=O)N(c1ccc(F)cc1)c1nc(N)c(C(=O)c2cc(C(=O)NCC#N)no2)s1 (racemic) [Example 35, rac-5-[4-amino-2-(N-(2-amino-1-methyl-2-oxo-ethyl)-4-fluoro-anilino)thiazole-5-carbonyl]-N-(cyanomethyl)isoxazole-3-carboxamide] — 0.61 log units lower, 6.25
- COCC(C)NC(=O)c1cc(C(=O)c2sc(N(c3ccc(F)cc3)C(C)C(N)=O)nc2N)on1 (racemic) [Example 36, 5-[4-amino-2-(N-(2-amino-1-methyl-2-oxo-ethyl)-4-fluoro-anilino)thiazole-5-carbonyl]-N-(2-methoxy-1-methyl-ethyl)isoxazole-3-carboxamide] — 0.51 log units lower, 6.35
- CC(C(N)=O)N(c1ccc(F)cc1)c1nc(N)c(C(=O)c2cc(C(=O)NC3CCCC3(C)C)no2)s1 (racemic) [Example 37, 5-[4-amino-2-(N-(2-amino-1-methyl-2-oxo-ethyl)-4-fluoro-anilino)thiazole-5-carbonyl]-N-(2,2-dimethylcyclopentyl)isoxazole-3-carboxamide] — 0.51 log units higher, 7.37
- CC(C(N)=O)N(c1ccc(F)cc1)c1nc(N)c(C(=O)c2cc(C(=O)N[C@H]3C[C@@H](F)C3)no2)s1 (mixture of isomers) [Example 38, 5-[4-amino-2-(N-(2-amino-1-methyl-2-oxo-ethyl)-4-fluoro-anilino)thiazole-5-carbonyl]-N-(cis-3-fluorocyclobutyl)isoxazole-3-carboxamide] — 0.40 log units lower, 6.46
- CC(C(N)=O)N(c1ccc(F)cc1)c1nc(N)c(C(=O)c2cc(C(=O)NC3(C)CCCC3)no2)s1 (racemic) [Example 39, rac-5-[4-amino-2-(N-(2-amino-1-methyl-2-oxo-ethyl)-4-fluoro-anilino)thiazole-5-carbonyl]-N-(1-methylcyclopentyl)isoxazole-3-carboxamide] — 0.42 log units higher, 7.28
- CC(C(N)=O)N(c1ccc(F)cc1)c1nc(N)c(C(=O)c2cc(C(=O)NC(CF)CF)no2)s1 (racemic) [Example 40, rac-5-[4-amino-2-(N-(2-amino-1-methyl-2-oxo-ethyl)-4-fluoro-anilino)thiazole-5-carbonyl]-N-[2-fluoro-1-(fluoromethyl)ethyl]isoxazole-3-carboxamide] — within 0.2 log units, 6.69
- CC(NC(=O)c1cc(C(=O)c2sc(N(c3ccc(F)cc3)C(C)C(N)=O)nc2N)on1)C(F)F (racemic) [Example 41, 5-[4-amino-2-(N-(2-amino-1-methyl-2-oxo-ethyl)-4-fluoro-anilino)thiazole-5-carbonyl]-N-(2,2-difluoro-1-methyl-ethyl)isoxazole-3-carboxamide] — within 0.2 log units, 6.87
- CC(C(N)=O)N(c1ccc(F)cc1)c1nc(N)c(C(=O)c2cc(C(=O)N[C@H]3C[C@H](F)C3)no2)s1 (mixture of isomers) [Example 42, 5-[4-amino-2-(N-(2-amino-1-methyl-2-oxo-ethyl)-4-fluoro-anilino)thiazole-5-carbonyl]-N-(trans-3-fluorocyclobutyl)isoxazole-3-carboxamide] — within 0.2 log units, 6.84
- CC(C(N)=O)N(c1ccc(F)cc1)c1nc(N)c(C(=O)c2cc(C(=O)NC3CCC(C)(C)C3)no2)s1 (racemic) [Example 43, 5-[4-amino-2-(N-(2-amino-1-methyl-2-oxo-ethyl)-4-fluoro-anilino)thiazole-5-carbonyl]-N-(3,3-dimethylcyclopentyl)isoxazole-3-carboxamide] — within 0.2 log units, 7.03
- CC(C(N)=O)N(c1ccc(F)c(F)c1)c1nc(N)c(C(=O)c2cc(C(=O)NC3(C)CCC3)no2)s1 (racemic) [Example 44, rac-5-[4-amino-2-(N-(2-amino-1-methyl-2-oxo-ethyl)-3,4-difluoro-anilino)thiazole-5-carbonyl]-N-(1-methylcyclobutyl)isoxazole-3-carboxamide] — 0.37 log units higher, 7.23
- CC(C(N)=O)N(c1ccc(F)c(F)c1)c1nc(N)c(C(=O)c2cc(C(=O)NC3CC(F)(F)C3)no2)s1 (racemic) [Example 45, rac-5-[4-amino-2-(N-(2-amino-1-methyl-2-oxo-ethyl)-3,4-difluoro-anilino)thiazole-5-carbonyl]-N-(3,3-difluorocyclobutyl)isoxazole-3-carboxamide] — 0.42 log units higher, 7.28
